Where two headings read alike, the source gives them in different places.
What was measured:
SUM-149 = test: Cytotoxicity of EP probes via CTG assay; format: cell-based, human
MDA-MB-231 = test: Cytotoxicity of EP probes via CTG assay; format: cell-based, human; conditions: read-out: MDA-MB231 EC50
T47D = test: Cytotoxicity of EP probes via CTG assay; format: cell-based; conditions: 72 hr
[1] = tested on: MDA-MB-231, SUM-149, T47D; test: Cytotoxicity of EP analogues via CTG assay, comparison across cell lines; conditions: 72 hr
Method: To better understand the structure-activity-relationship of EP, its core was modified at the C3 position of the steroid backbone. […] Both normal cell lines HMEC and BJ cells were also evaluated to determine therapeutic index.
(§1) Either 1×10^3-4.8×10^3 or 4×10^2-1.2×10^3 cells were seeded to each well of 96- or 384-well white polystyrene flat-bottomed plates (3610 or 8804BC, Corning) in 100 μL or 30 μL media per well, respectively. The concentrations used were experimentally determined to ensure logarithmic growth during the duration of the experiment and prevent adverse effects on cell growth by DMSO exposure. The plates were incubated at 37° C. in 5% CO2 for 24 h before treatment. Stock solutions of test compounds (10 mM in DMSO) in nine 3-fold serial dilutions were dispensed via pintool (Biomek). The final concentration of DMSO was 0.3% (v/v) in each well. The plates were incubated for 72 h at 37° C. in 5% CO2 and then quenched with CellTiter-Glo® reagent (50 μL/well in 96-well plate, 30 μL/well in 384-well plate) at RT. The positive controls included staurosporine (10 μM), gambogic acid (10 μM), and a toxic quinoline generated in-house. Plates were then incubated at RT for 20 min and centrifuged at 1000 rpm for 1 min. The cytotoxicity assay was performed by using the CellTiterGlo Luminescent Cell Viability Assay kit (G7570, Promega, Madison, WI) according to the manufacturer's instructions. Luminescence was recorded in an Envision plate reader (Perkin Elmer).

HMEC = test: Cytotoxicity of EP probes via CTG assay, normal cells; format: cell-based; conditions: 72 hr
Solubility observations = format: physicochemical; conditions: DMSO
Method: One of the liabilities with EP is sharing its core with cholesterol, an amphipathic molecule with part-water soluble, part-water insoluble character. Thus, while able to readily cross the cell membrane, the ability to deliver the pure compound faces challenges. EP's solubility properties are poor in DMSO or water unless warmed up to 30° C. However, in this report, EP's derivative, EP sulfonamide, was soluble at 10 mM in DMSO. Thus, the generation of a selective anti-cancer compound with greater potency than EP, and ample therapeutic window when compared to BJ normal cells, was accomplished.

SUM-149 cells [2] = test: Cell viability assay (CellTiter-Glo or PI staining); format: cell-based, human
BJ cells = test: Cell viability assay in normal fibroblasts; conditions: at the concentrations tested
Method: The compounds' activity was also evaluated in human and murine leukemia (KOPN8, BCR-ABL, UoCB-1, SUP-B15, NALM06) cell lines. As a control, normal human skin fibroblasts (BJ) cells and non-cancerous mammary epithelial cells (MCF10A) were used.
Different concentrations of GLE-extracted bioactive chemical components were tested for 72-h treatment periods.
as §1, with “The cytotoxicity assay was performed by using the CellTiterGlo Luminescent Cell Viability Assay kit (G7570, Promega, Madison, WI) according to the manufacturer's instructions.” left out
For the CTG assay, 3 or 4 replicate assays were conducted for each experimental condition, and a minimum of 3 independent experiments were conducted for cellular assays. The mean luminescence of each experimental treatment group was normalized as a percentage of the mean intensity of untreated controls. EC50 values (μM) were calculated by Pipeline Pilot Software (Accelrys, Enterprise Platform, CA, USA). EC50 values (μM) from the viability assay were calculated from dose response curve-fitting via non-linear regression by using GraphPad Prism (Version 7.0 San Diego, CA). […]

[3] = tested on: MDA-MB-231 breast cancer cells; test: De novo in-cell protein synthesis (click assay); format: cell-based, human; conditions: 2 h treatment; EP 20 μM
Method: First, 2.5×10^4 cells/well were seeded in 8-well μ-slides (Ibidi®, #80826) and incubated at 37° C. for 12 h. The cells were treated with vehicle, compounds Ganoderic acid A or EP, or cycloheximide (positive control) for 2 h to determine protein synthesis as nascent proteins generated using Biovision's EZClick™ Global Protein Synthesis Assay Kit, (#K715-100, Milpitas, CA). The assay includes a robust chemical method based on an alkyne containing o-propargyl-puromycin (OP-puro) probe, which stops translation by forming covalent conjugates with nascent polypeptide chains. Truncated polypeptides are rapidly turned over by the proteasome and can be detected based on the subsequent click reaction with a fluorescent azide. The reaction was conducted according to the manufacturer's protocol. Cells were imaged at 20× with a Nikon C2 scanning confocal microscope, and the whole image montage was quantified by using Gen5 Software and Lionheart™ FX Automated Microscope (BioTek, Winooski, VT).

MDA-MB-231 cells [4] = test: ApoTox-Glo Triplex assay (caspase 3/7); format: cell-based, human; conditions: MDA-MB-231, 24 h
Method: (§2) Cells commonly fail to bypass the G1 phase of the cycle due to mutations or DNA damage, which can result in apoptosis. […] In addition, caspase 3/7 activity assays were performed as an alternate method of apoptosis detection.
(§3) Cells (9.5×10^4/well in 75 μL of fresh medium) were dispensed in 96-well black flat bottom (8807BC, Corning) plates. The cells were incubated for 12 h at 37° C. and then treated with compounds (25 μL) for 24 h. DMSO was used as a negative control, and staurosporine was used as the positive control. The experiment was stopped by adding the Viability/Cytotoxicity Reagent and briefly mixed by orbital shaking (300-500 rpm for ˜30 sec). Plates were incubated for 30 min at 37° C., and fluorescence was measured in an Envision plate reader at the following two wavelength sets: 400Ex/505Em (Viability) 485Ex/520Em (Cytotoxicity). Then, the Caspase-Glo® 3/7 Reagent was added; plates were mixed briefly by orbital shaking (300-500 rpm for ˜30 sec), followed by an additional 30 min incubation at RT. Then luminescence, which correlates with caspase 3/7 activation, was recorded with a plate reader to determine apoptosis induction.

SUM-149 cells [5] = test: ApoTox-Glo Triplex assay (caspase 3/7); format: cell-based, human; conditions: SUM-149, 24 h
Method: as §2, §3

[6] = tested on: various breast cancer cell lines; test: Cell viability assay, breast cancer cell line panel; format: cell-based
SUM-149 cells [7] = test: Reactive oxygen species (ROS) measurement, CellROX; format: cell-based, human; conditions: NAC 500 μM
MDA-MB-231 cells [8] = test: Reactive oxygen species (ROS) measurement, CellROX; format: cell-based, human; conditions: NAC 500 μM
[9] = Homo sapiens, MDA-MB-231, 72 hr

CC(C)C(C)C=CC(C)C1CCC2C1(C)CCC1C23C=CC2(CC(=O)CCC12C)OO3 (stereo not shown) [3a]
EC50 (SUM-149; 72 hr, read-out: SUM149 EC50): 5 µM
EC50 (MDA-MB-231; 72 hr): 7 µM
EC50 (T47D): 10 µM
cytotoxicity compared with parental compound 3 (in words) [1]: improved activity
EC50 (HMEC): > 13 µM

CC(C)C(C)C=CC(C)C1CCC2C1(C)CCC1C23C=CC2(CC(OC(=O)CCl)CCC12C)OO3 (stereo not shown) [3c]
EC50 (SUM-149; 72 hr, read-out: SUM149 EC50): 5 µM
EC50 (MDA-MB-231; 72 hr): > 20 µM
EC50 (T47D): > 20 µM
cytotoxicity compared with parental compound 3 (in words) [1]: promising activity against SUM-149 with little or no activity observed at the tested concentrations in MDA-MB-231 and T47D
EC50 (HMEC): > 20 µM

CC(C)C(C)C=CC(C)C1CCC2C1(C)CCC1C23C=CC2(CC(OC(=O)CN=[N+]=[N-])CCC12C)OO3 (stereo not shown) [3d]
EC50 (SUM-149; 72 hr, read-out: SUM149 EC50): 10 µM
EC50 (MDA-MB-231; 72 hr): > 20 µM
EC50 (T47D): > 20 µM
cytotoxicity compared with parental compound 3 (in words) [1]: promising activity against SUM-149 with little or no activity observed at the tested concentrations in MDA-MB-231 and T47D
EC50 (HMEC): > 20 µM

C#CCOC1CCC2(C)C3CCC4(C)C(C(C)C=CC(C)C(C)C)CCC4C34C=CC2(C1)OO4 (stereo not shown) [3e]
EC50 (SUM-149; 72 hr, read-out: SUM149 EC50): 10 µM
EC50 (MDA-MB-231; 72 hr): 16 µM
EC50 (T47D): > 20 µM
cytotoxicity compared with parental compound 3 (in words) [1]: better activity
EC50 (HMEC): > 20 µM

CCOP(=O)(COC1CCC2(C)C3CCC4(C)C(C(C)C=CC(C)C(C)C)CCC4C34C=CC2(C1)OO4)OCC (stereo not shown) [3f]
EC50 (SUM-149; 72 hr, read-out: SUM149 EC50): 5 µM
EC50 (MDA-MB-231; 72 hr): 9 µM
EC50 (T47D): > 20 µM
cytotoxicity compared with parental compound 3 (in words) [1]: improved activity
EC50 (HMEC): > 20 µM

CC(C)C(C)C=CC(C)C1CCC2C1(C)CCC1C23C=CC2(CC(OCP(=O)(O)O)CCC12C)OO3 (stereo not shown) [3g]
EC50 (SUM-149; 72 hr, read-out: SUM149 EC50): 5 µM
EC50 (MDA-MB-231; 72 hr): 37 µM
EC50 (T47D): > 20 µM
cytotoxicity compared with parental compound 3 (in words) [1]: poor activity
EC50 (HMEC): > 20 µM

CC(C)C(C)C=CC(C)C1CCC2C1(C)CCC1C23C=CC2(CC(OP(=O)([O-])OCC[N+](C)(C)C)CCC12C)OO3 (stereo not shown) [3h]
EC50 (SUM-149; 72 hr, read-out: SUM149 EC50): 21 µM
EC50 (MDA-MB-231; 72 hr): 25 µM
EC50 (T47D): 17 µM
cytotoxicity compared with parental compound 3 (in words) [1]: poor activity
EC50 (HMEC): > 20 µM

CC(C)C(C)C=CC(C)C1CCC2C1(C)CCC1C23C=CC2(CC(OC(=O)CCCC(=O)O)CCC12C)OO3 (stereo not shown) [3i]
EC50 (SUM-149; 72 hr, read-out: SUM149 EC50): 5 µM
EC50 (MDA-MB-231; 72 hr): 33 µM
EC50 (T47D): 18 µM
cytotoxicity compared with parental compound 3 (in words) [1]: poor activity
EC50 (HMEC): > 20 µM

C#CCCCC(=O)OC1CCC2(C)C3CCC4(C)C(C(C)C=CC(C)C(C)C)CCC4C34C=CC2(C1)OO4 (stereo not shown) [3j]
EC50 (SUM-149; 72 hr, read-out: SUM149 EC50): 4 µM
EC50 (MDA-MB-231; 72 hr): 8 µM
EC50 (T47D): 11 µM
cytotoxicity compared with parental compound 3 (in words) [1]: superior activity across cell lines
EC50 (HMEC): > 13 µM

CC(C)C(C)C=CC(C)C1CCC2C1(C)CCC1C23C=CC2(CC(OC(=O)Cn4cc(CNC(=O)c5ccc6c(c5)C(=O)OC65c6ccc(N(C)C)cc6Oc6cc(N(C)C)ccc65)nn4)CCC12C)OO3 (stereo not shown) [3l]
solubility properties (in words) (Solubility observations; water or PBS): poor solubility properties and precipitated readily in DMSO or PBS
EC50 (SUM-149; 72 hr, read-out: SUM149 EC50): 18 µM
EC50 (MDA-MB-231; 72 hr): 20 µM
EC50 (T47D): > 20 µM
EC50 (HMEC): > 20 µM

CCCCCOC(=O)Nc1nc(=O)n([C@@H]2O[C@H](C)[C@@H](O)[C@H]2O)cc1F [Capecitabin, reference compound]
EC50 (SUM-149; 72 hr, read-out: SUM149 EC50): 5 µM
EC50 (MDA-MB-231; 72 hr): 5 µM
EC50 (HMEC): 10 µM

COc1cccc2c1C(=O)c1c(O)c3c(c(O)c1C2=O)C[C@@](O)(C(=O)CO)C[C@@H]3O[C@H]1C[C@H](N)[C@H](O)[C@H](C)O1 [Doxorubicin, reference compound]
EC50 (SUM-149; Homo sapiens, SUM149, 72 hr): 1 µM
EC50 (MDA-MB-231; [9]): 1 µM
EC50 (HMEC; Homo sapiens, HMEC): > 10 µM

CC(C)C(C)C=CC(C)C1CCC2C1(C)CCC1C23C=CC2(CC(OC(=O)NS(=O)(=O)c4ccccc4)CCC12C)OO3 (stereo not shown) [EP sulfonamide, ergosterol peroxide sulfonamide]
solubility in DMSO (Solubility observations): ≥ 10 mM
EC50 (SUM-149 cells [2]; FIG. 10A, SUM-149 breast cancer cells, read-out: EC50, cancer cell viability of derivative): 12 µM
cytotoxic effects in normal BJ cells (BJ cells): minimal

C[C@H](CC(=O)C[C@@H](C)[C@H]1C[C@H](O)[C@@]2(C)C3=C(C(=O)C[C@]12C)[C@@]1(C)CCC(=O)C(C)(C)[C@@H]1C[C@@H]3O)C(=O)O [GA-01, ganoderic acid A]
de novo protein synthesis inhibition [3]: do not inhibit de novo protein synthesis
cytotoxic effects in normal BJ cells (BJ cells): did not induce cytotoxic effects
caspase 3/7 activity (MDA-MB-231 cells [4]): increase caspase 3/7 activity
caspase 3/7 activity (SUM-149 cells [5]): increase caspase 3/7 activity

CC(=O)O[C@H]1C(=O)[C@@]2(C)[C@H]([C@H](OC(=O)c3ccccc3)[C@]3(O)C[C@H](OC(=O)[C@H](O)[C@@H](NC(=O)c4ccccc4)c4ccccc4)C(C)=C1C3(C)C)[C@]1(OC(C)=O)CO[C@@H]1C[C@@H]2O [Taxol, reference compound]
EC50 (SUM-149; Homo sapiens, SUM149, 72 hr): 0.01 µM
EC50 (MDA-MB-231; [9]): 2 µM
EC50 (HMEC; Homo sapiens, HMEC): > 10 µM

CC(C)[C@@H](C)/C=C/[C@@H](C)[C@H]1CC[C@H]2C3=CC=C4C[C@@H](O)CC[C@]4(C)[C@H]3CC[C@]12C [ergosterol]
concentration at which SUM-149 cell viability is significantly reduced (SUM-149 cells [2]; 72 h): 64 µM
EC50 ([6]; 72-h treatment): > 50 µM
cancer cell viability significantly reduced starting at ([6]; breast cancer cellular models, 72-h): 64 µM
cytotoxic effects in normal BJ cells (BJ cells): did not induce cytotoxic effects

CC1=CC(=O)c2ccccc2C1=O [menadione, Menadione, reference compound]
reduction in ROS formation in the presence of NAC (SUM-149 cells [7]): about 20%
reduction in ROS formation in the presence of NAC (MDA-MB-231 cells [8]): about 20%

CCCCCCCCCCCCCCCC(=O)O [palmitic acid]
activity at the tested concentrations in the evaluated cell lines [6]: did not show activity

— patent publication US12263177B2, “Biologically active ganoderma lucidum compounds and synthesis of anticancer derivatives; ergosterol peroxide probes for cellular localization” (priority 2019, dated 2025)
